# Source: patent US6984664B2, “Tertiary amino compounds having opioid receptor affinity” (Euro-Celtique, S.A., priority 1999, dated 2006)
# Assays:
# Assay type in all cases: binding
# [1] = molecular target: Mu opioid receptor (Homo sapiens, UniProt P35372); test: Affinity at the μ receptor ([35S]GTPγS membrane assay); details: opioid receptor membranes, 30 min room temperature, read-out: calc Ki (nM) μ
# Protocol: (§1) Affinity at the μ, k and δ receptors for preferred compounds was obtained according to the following assays:
# (§2) Mu, kappa or delta opioid receptor membrane solution was prepared by sequentially adding final concentrations of 0.075 μg/μl of the desired membrane protein, 10 μg/ml saponin, 3 μM GDP and 0.20 nM [^35S]GTPγS to binding buffer (100 mM NaCl, 10 mM MgCl2, 20 mM HEPES, pH 7.4) on ice. The prepared membrane solution (190 μl/well) was transferred to 96-shallow well polypropylene plates containing 10 μl of 20× concentrated stock solutions of agonist prepared in DMSO. Plates were incubated for 30 min at room temperature with shaking. Reactions were terminated by rapid filtration onto 96-well Unifilter GF/B filter plates (Packard) using a 96-well tissue harvester (Brandel) and followed by three filtration washes with 200 μl ice-cold binding buffer (10 mM NaH2PO4, 10 mM Na2HPO4, pH 7.4). Filter plates were subsequently dried at 50° C. for 2–3 hours. Fifty μl/well scintillation cocktail (MicroScint20, Packard) was added and plates were counted in a Packard Top-Count for 1 min/well.
# (§3) Data were analyzed using the curve fitting functions in GraphPad PRISM™, v.
# [2] = molecular target: kappa opioid receptor (Homo sapiens, UniProt P41145); test: Affinity at the k receptor ([35S]GTPγS membrane assay); details: opioid receptor membranes, 30 min room temperature, read-out: calc Ki (nM) k
# Sequence of kappa opioid receptor (P41145 whole entry): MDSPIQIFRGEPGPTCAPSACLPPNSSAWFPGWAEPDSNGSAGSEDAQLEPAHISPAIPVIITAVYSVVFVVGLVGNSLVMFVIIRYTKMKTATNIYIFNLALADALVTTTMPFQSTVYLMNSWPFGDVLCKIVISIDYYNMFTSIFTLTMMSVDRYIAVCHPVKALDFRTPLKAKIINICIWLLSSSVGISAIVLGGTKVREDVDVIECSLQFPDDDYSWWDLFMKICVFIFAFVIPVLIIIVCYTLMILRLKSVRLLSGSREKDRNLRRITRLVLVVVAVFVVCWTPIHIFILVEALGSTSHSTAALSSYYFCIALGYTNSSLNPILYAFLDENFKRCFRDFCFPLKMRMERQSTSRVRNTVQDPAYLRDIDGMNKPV
# Protocol: as §1, §2, §3
# [3] = molecular target: delta opioid receptor (Homo sapiens, UniProt P41143); test: Affinity at the δ receptor ([35S]GTPγS membrane assay); details: opioid receptor membranes, 30 min room temperature, read-out: calc Ki (nM) δ2
# Sequence of delta opioid receptor (P41143 whole entry): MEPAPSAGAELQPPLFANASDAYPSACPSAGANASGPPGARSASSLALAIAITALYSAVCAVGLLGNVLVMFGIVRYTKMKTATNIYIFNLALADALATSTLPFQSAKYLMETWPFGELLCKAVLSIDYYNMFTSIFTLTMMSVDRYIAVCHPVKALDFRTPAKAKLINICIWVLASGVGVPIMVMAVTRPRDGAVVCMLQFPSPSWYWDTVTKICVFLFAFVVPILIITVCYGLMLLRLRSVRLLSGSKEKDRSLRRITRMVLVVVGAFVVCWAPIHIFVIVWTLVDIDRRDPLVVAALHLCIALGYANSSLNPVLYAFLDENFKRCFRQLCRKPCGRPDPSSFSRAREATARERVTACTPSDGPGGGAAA
# Protocol: as §1, §2, §3
# Sequence of Mu opioid receptor (P35372 whole entry): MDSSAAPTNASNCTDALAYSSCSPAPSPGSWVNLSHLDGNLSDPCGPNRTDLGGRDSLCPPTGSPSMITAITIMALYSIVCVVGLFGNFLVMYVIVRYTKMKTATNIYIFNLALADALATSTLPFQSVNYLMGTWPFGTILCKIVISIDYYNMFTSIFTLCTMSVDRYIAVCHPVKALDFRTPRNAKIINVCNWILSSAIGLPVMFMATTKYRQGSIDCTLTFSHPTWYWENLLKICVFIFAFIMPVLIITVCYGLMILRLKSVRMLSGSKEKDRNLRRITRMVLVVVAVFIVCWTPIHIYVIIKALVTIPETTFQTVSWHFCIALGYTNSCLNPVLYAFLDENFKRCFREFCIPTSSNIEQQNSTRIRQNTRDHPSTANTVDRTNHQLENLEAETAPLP
structure (smiles),measurement,setting,value
CCCCN(CCCC)CCN(Cc1ccccc1)C(=O)Cc1ccccc1 [1-[1-benzyl-1-(2-phenyl-1-oxo-ethyl)-amino]-2-dibutylamino-ethyl],Ki,[1],40 nM
same,Ki,[2],3500 nM
same,Ki,[3],> 10000 nM
